# B1: palmitic acid-bound AFP: alpha fetoprotein non-covalently bound to palmitic acid (protein, UniProt P02771 19-609, looked up)
# Alpha-fetoprotein: RTLHRNEYGIASILDSYQCTAEISLADLATIFFAQFVQEATYKEVSKMVKDALTAIEKPTGDEQSSGCLENQLPAFLEELCHEKEILEKYGHSDCCSQSEEGRHNCFLAHKKPTPASIPLFQVPEPVTSCEAYEEDRETFMNKFIYEIARRHPFLYAPTILLWAARYDKIIPSCCKAENAVECFQTKAATVTKELRESSLLNQHACAVMKNFGTRTFQAITVTKLSQKFTKVNFTEIQKLVLDVAHVHEHCCRGDVLDCLQDGEKIMSYICSQQDTLSNKITECCKLTTLERGQCIIHAENDEKPEGLSPNLNRFLGDRDFNQFSSGEKNIFLASFVHEYSRRHPQLAVSVILRVAKGYQELLEKCFQTENPLECQDKGEEELQKYIQESQALAKRSCGLFQKLGEYYLQNAFLVAYTKKAPQLTSSELMAITRKMAATAATCCQLSEDKLLACGEGAADIIIGHLCIRHEMTPVNPGVGQCCTSSYANRRPCFSSLVVDETYVPPAFSDDKFIFHKDLCQAQGVALQTMKQEFLINLVKQKPQITEEQLEAVIADFSGLLEKCCQGQEQEVCFAEEGQKLISKTRAALGV
# modifications: non-covalently bound palmitic acid
# B2: nAFP: cord blood-derived normal alpha fetoprotein; commercially available (Cell Sciences) (protein, UniProt P02771 19-609, looked up)
# Alpha-fetoprotein: RTLHRNEYGIASILDSYQCTAEISLADLATIFFAQFVQEATYKEVSKMVKDALTAIEKPTGDEQSSGCLENQLPAFLEELCHEKEILEKYGHSDCCSQSEEGRHNCFLAHKKPTPASIPLFQVPEPVTSCEAYEEDRETFMNKFIYEIARRHPFLYAPTILLWAARYDKIIPSCCKAENAVECFQTKAATVTKELRESSLLNQHACAVMKNFGTRTFQAITVTKLSQKFTKVNFTEIQKLVLDVAHVHEHCCRGDVLDCLQDGEKIMSYICSQQDTLSNKITECCKLTTLERGQCIIHAENDEKPEGLSPNLNRFLGDRDFNQFSSGEKNIFLASFVHEYSRRHPQLAVSVILRVAKGYQELLEKCFQTENPLECQDKGEEELQKYIQESQALAKRSCGLFQKLGEYYLQNAFLVAYTKKAPQLTSSELMAITRKMAATAATCCQLSEDKLLACGEGAADIIIGHLCIRHEMTPVNPGVGQCCTSSYANRRPCFSSLVVDETYVPPAFSDDKFIFHKDLCQAQGVALQTMKQEFLINLVKQKPQITEEQLEAVIADFSGLLEKCCQGQEQEVCFAEEGQKLISKTRAALGV
# Assays:
# Type in all cases: cell-based, human
# iDCs = assay: Fatty acid screen: fatty acids titrated onto iDCs without OVA, nAFP or tAFP; settings: for lactate production: relative to control cells, 16:0 at 5-20 μM in b86
# Source text: We developed an in vitro assay to screen specific FAs that are necessary for tAFP-mediated suppression of DC formation (FIG. 6A). Many of the FAs screened have known roles in promoting (Weatherill, A. R. et al. Saturated and Polyunsaturated Fatty Acids Reciprocally Modulate Dendritic Cell Functions Mediated through TLR4. J Immunol. 174, 5390-5397 (2005); Lancaster, G. I. et al. Evidence that TLR4 Is Not a Receptor for Saturated Fatty Acids but Mediates Lipid-Induced Inflammation by Reprogramming Macrophage Metabolism. Cell Metab. 27, 1096-1110.e5 (2018)) or limiting DC differentiation (Zeyda, M. et al. Polyunsaturated Fatty Acids Block Dendritic Cell Activation and Function Independently of NF-κB Activation. J Biol. Chem. 280, 14293-14301 (2005)). Therefore, to determine their necessity for tAFP-mediated DC suppression, we titrated several FAs unique to tAFP (20:3 N6, 20:5, and 22:5 N3), and other PUFAs to determine the concentration they lost their inherent ability to suppress DC differentiation in the absence of OVA, nAFP, or tAFP (FIG. 6A). […] All three PUFAs at high concentrations inhibited CD206 expression on DCs (Zeyda. M. et al. Polyunsaturated Fatty Acids Block Dendritic Cell Activation and Function Independently of NF-κB Activation. J Biol. Chem. 280, 14293-14301 (2005)), at levels equivalent to or greater than tAFP treatment.
# Fatty acids were resuspended in ethanol and stored at −20° C. at 100 uM. […] Both the native preparations and HMM fractions contained similar amounts of protein (˜0.5 mg/mL), whereas protein was undetectable ([…]) in the low molar mass (LMM) fraction. […] Fats (+/−HMM) were added to pre-warmed media and incubated for 1 hour, mixing at 37° C. before adding to cells (Alsabeeh, N., Chausse, B., Kakimoto, P. A., Kowaltowski, A. J. & Shirihai, O. Cell Culture Models of Fatty Acid Overload: Problems and Solutions. Biochim. Biophys. Acta 1863, 143-151 (2018)). Fats were combined with HMM at a 3:1 molar ratio, as previously described (Alsabeeh, N., Chausse, B., Kakimoto, P. A., Kowaltowski, A. J. & Shirihai. O. Cell Culture Models of Fatty Acid Overload: Problems and Solutions. Biochim. Biophys. Acta 1863, 143-151 (2018)).
# iDCs and mDCs = assay: Fatty acid screen: fatty acids added back to HMM OVA, nAFP or tAFP; settings: for CD206 expression at the iDC stage / inhibition of CD206 expression, mDC: FA combined with tAFP; for CD206 expression compared to controls: FA+HMM tAFP
# Procedure: Fatty acids were resuspended in ethanol and stored at −20° C. at 100 uM.
# [1] = system: monocyte-derived dendritic cells (DCs); assay: SCENITH single-cell energetic metabolism profiling of treated DCs; settings: DC
# Source text: (§1) DCs were differentiated in vitro similarly as previously described (Pardee, A. D., Shi, J. & Butterfield, L. H. Tumor-Derived α-Fetoprotein Impairs the Differentiation and T Cell Stimulatory Activity of Human Dendritic Cells. J Immunol. 193, 5723-5732 (2014)). In brief, cryopreserved PBMC were thawed and CD14*monocytes were magnetically labeled using CD14 MicroBeads (Miltenyi, Cat #130-050-201) and isolated by LS columns (Miltenyi, Cat #130-042-401) per the manufacturer instructions. Viable eluted cells were enumerated using trypan blue on a Nexcelom Cellometer Spectrum. To generate iDCs, monocytes were stimulated for 5 days in the presence of 800 IU/mL of rGM-CSF (Miltenyi, Cat #130-093-862) and 500 IU/mL of rIL-4 (Miltenyi, Cat #130-095-373) as well as OVA, nAFP, or tAFP in CellGenix® GMP DC media (Cat #20801-0500) 37° C. at 5% CO2. Lastly, we performed an additional 24-hour stimulation with 1000 IU/mL of rIFN-γ (Peprotech, Cat #300-02) and 250 ng/mL of LPS (Sigma Aldrich, Cat #L2630-10MG) to produce mDCs. To harvest cells, DC were detached using TrypLE™ Select (Gibco, Cat #12563011) for 15 minutes at 37° C. and then washed several times with cold PBS.
# SCENITH was performed as described in (Arguello et al., 2020). SCENITH™ reagents kit (inhibitors, puromycin and antibodies) were obtained from www.scenith.com/try-it and used according to the provided protocol for in-vitro derived myeloid cells. Briefly, control and tol-moDC cultures at desired timepoints, were treated for 18 minutes with Control (DMSO), 2-Deoxy-Glucose (2-DG; 100 mM), Oligomycin (0; 1 μM), a combination of 2DG and Oligomycin (DGO) or Harringtonine (H; 2 μg/mL). Following metabolic inhibitors, Puromycin (final concentration 10 μg/mL) was added to cultures for 17 min. After puromycin treatment, cells were detached from wells using TypLE Select (Fisher Scientific, 505914419), washed in cold PBS and stained with a combination of Human TureStain FcX (Biolegend, 422301) and fluorescent cell viability dye (Biolegend, 423105) for 10 min 4° C. in PBS. Following PBS wash step, primary antibodies against surface markers were incubated for 25 min at 4° C. in Brilliant Stain Buffer (BD Biosciences, 563794). Next cells were fixed and permeabilized using True-Nuclear Transcription Factor Buffer Set (Biolegend, 424401) as per manufacturer instructions. Intracellular staining of puromycin and protein targets was performed for 1 h in diluted (10×) permeabilization buffer at 4° C. Finally, data acquisition was performed using the Cytek Aurora flow cytometer. Primary conjugated antibody information used in SCENITH panel is listed in supplementary table 1. All antibodies were titrated to reduce spillover and increase resolution using single stained moDC (generated as described above) samples. Unstained cell controls used for autofluorescence extraction were generated for each time point, culture conditions (control, vitd3-tol-moDC and dexa-vitd3-tol-moDC) and metabolic inhibitor treatments (C, 2DG, O, DGO). Samples were unmixed using reference controls generated in combination with stained Ultracomp beads (Fisher Scientific, 01-2222-41) and stained cells using the SpectroFlo Software v2.2.0.1. The unmixed FCS files were used for data processing and analysis using FlowJo (BD, version 10.7.1). Manually gated CD14-HLA-DR*CD86+ cells were used for downstream analysis. gMFI expression values were imported into R environment for correlation and heatmap analysis using the below described R packages.
# mDCs generated in vitro = assay: scMEP single-cell metabolic regulome profiling by CyTOF
# Procedure: scMEP analysis was performed as recently described (Hartmann et al., 2021). In short, antibodies targeting metabolic features were conjugated in-house using an optimized conjugation protocol (Hartmann et al., 2019) and validated on multiple sample types. Cells were prepared for scMEP analysis by incubation with small molecules to be able to assess biosynthesis rates of DNA, RNA and protein, cisplatin-based live/dead staining, PFA-based cell fixation and cryopreservation (dx.doi.org/10.17504/protocols.io.bkwkkxcw). Next, cells were stained with metabolic antibodies in a procedure that includes surface staining for 30 min at RT, PFA-fixation for 10 min at RT, MeOH-based permeabilization for 10 min on ice, intracellular staining for 1 h at RT and DNA intercalation (dx.doi.org/10.17504/protocols.io.bntnmeme). Finally, cells were acquired on a CyTOF2 mass cytometer (Fluidigm). Protein targets and antibody information used in scMEP are listed in supplementary table 2. Raw mass spectrometry data were pre-processed, de-barcoded and imported into R environment using the flowCore package (version 2.0.1) (Hahne et al., 2009). Values were arcsin h transformed (cofactor 5) and normalized (Hartmann et al., 2021) for downstream analyses based on previously reported workflow (Nowicka et al., 2017).
# [2] = system: monocyte-derived dendritic cells (DCs); assay: Glucose and lactate measurements in DC cultures; settings: DC
# Source text: as §1
# Glucose and lactate were measured by applying approximately 5 μL of supernatant to Clarity BG1000 Blood Glucose strips (Cat #75840-798) and meter (Cat #75840-800) system or the Lactate Plus strips (Nova Biomedical©, Cat #40813) and meter version 2 (Nova Biomedical©, Cat #62624) system. Each meter was quality checked with control glucose and lactate solutions and CellGenix™ media before each experiment.
molecule,measurement,setting,value
"CCCCCCCCCCCCCCCC(=O)O [16:0, palmitic acid]",ox-phos,iDCs,can promote
same,CD206 expression on DCs,iDCs; fatty acid alone,increase
same,DC differentiation,iDCs; fatty acid alone,tended to promote
same,lactate production,iDCs; fatty acid alone,tended to decrease
same,lactate production,"iDCs; fatty acid alone, listed as palmitic acid",decrease
"CCCCC/C=C\C/C=C\C/C=C\CCCCCCC(=O)O [20:3 N6, dihomo-γ-linolenic acid]",CD206 expression at the iDC stage,iDCs and mDCs,immunoregulatory activity
same,"inhibition of CD206 expression, mDC",iDCs and mDCs,~-15%
same,CD206 expression compared to controls,iDCs and mDCs,significantly reduced
"CCCCC/C=C\C/C=C\C/C=C\C/C=C\CCCC(=O)O [20:4, arachidonic acid]",CD206 expression at the iDC stage,iDCs and mDCs,immunoregulatory activity
same,"inhibition of CD206 expression, mDC",iDCs and mDCs,~-15%
same,CD206 expression compared to controls,iDCs and mDCs,significantly reduced
"CCCCC/C=C\C/C=C\C/C=C\C/C=C\CCCCCC(=O)O [22:4, adrenic acid]","inhibition of CD206 expression, mDC",iDCs and mDCs,~-15%
B1,CD206 expression in dendritic cells,iDCs and mDCs; fatty acid-bound AFP,increased
same,lactate secretion in dendritic cells,iDCs and mDCs; fatty acid-bound AFP,decreased
B2,FAO,[1],similarly reduces
same,glucose dependent metabolism,[1],modestly increases
same,levels of cytochrome C (CytC),mDCs generated in vitro,elevated
same,glucose uptake,[2],modestly increases
